Results on one molecule are retold here after patent EP2711008A1, “N6,N6-dimethyladenosine for use in treating or preventing primary and metastatic breast cancer” (priority 2012, dated 2014).

One series has as its system Ehrlich ascites tumour. The settings on record: prior art (Kato et al 1986; Takamura et al 1989); cited from earlier work.
In series [1] the test system is malignant trophoblastic cell lines. The settings on record: prior art (Trewyn et al. 1979); cited from earlier work.
The test system of series [2] is MCF-7 breast cancer cell line. As to the kind of experiment: Tetrazolium dye proliferation (WST-1) assay in MCF-7 cells. The format is cell-based. The note with it: 5 days incubation. On the procedure: (§1) Determination of the ability of compound of formula (I) and combinations between compound of formula (I) and certain therapeutic compounds described herein to inhibit the proliferation of target cells was assayed in vitro against breast tumour cells.
(§2) MCF-7 cells were purchased from ATCC. PNT1A cells were purchased from ECACC. The cells were grown in a subconfluent condition to maintain a logarithmic growth phase. The cells were dislodged for passage using trypsin-EDTA.
(§3) The proliferation of the cell lines was evaluated by using the commercial WST-1 proliferation measurement reagent. Cells from exponentially growing cultures were plated on the 96 well plates at the appropriate seeding density in the optimal medium to give logarithmic growth over the course of the assay. […] Following incubation the absorbance at a wavelength of 450 nm was measured from each well using a multilabel counter. The absorbance at wavelength 450 nm correlates linearly to number of viable cells in the well.
(§4) The means and standard deviations for parallel samples were calculated and plotted as a graph.
(§5) The antiproliferative activity of compound of formula (I) was evaluated in vitro using tetrazolium dye proliferation assay in different cell lines: MCF-7 (breast cancer cell line, derived from pleura fluid) and PNT1A (normal prostate cell line, SV40 immortalized).

In series [3] the test system is PNT1A immortalized normal prostate cell line. The series is described as follows: Tetrazolium dye proliferation (WST-1) assay in PNT1A cells. It is filed as cell-based. The note with it: Homo sapiens, 120 h, compared with 0.1 % DMSO vehicle control group, 5 days incubation, read-out: proliferation inhibitory effect. As to the method:
as §1, §2, §3, §4, §5
(In general: Tetrazolium dyes change colour on reduction, which living cells bring about.)

For another series, the system named is pancreatic cancer cells. As to the kind of experiment: Effect on other cancer cells: pancreatic. It is filed as cell-based.
Series [4] relates to L1210 leukemia cultured cells. The note with it: prior art (Kato et al 1986; Takamura et al 1989); cited from earlier work.
The next series has as its system prostate cancer cells. The series is described as follows: Effect on other cancer cells: prostate. The format is cell-based.
Another series deals with HL-60 cells. The note with it: prior art (Meisel et al. 1998; Mlejnek et al. 2005); cited from earlier work.

Molecules are shown by their SMILES.

In the case of `CN(C)c1ncnc2c1ncn2[C@@H]1O[C@H](CO)[C@@H](O)[C@H]1O` [Compound I, N6,N6-Dimethyladenosine], in the series with Ehrlich ascites tumour, the “antitumour activity against Ehrlich ascites tumour” value was “inactive”. The “cytotoxicity to malignant trophoblastic cell lines” value in series [1] was “cytotoxic”. Moreover, the inhibition at 1 µM came out at 91.6 ± 2.1% in series [2] (Homo sapiens, MCF7, 120 h, compared with 0.1 % DMSO vehicle control group, 1 microM, read-out: proliferation inhibitory effect) and 17.4 ± 5.3% in series [3]. In addition, in series [2] (relative to Gemcitabine (= 0)), the “proliferation inhibitory effect compared with Gemcitabine” value was found to be 62.6±9.4%. In addition, the “effect on pancreatic cancer cells” value with pancreatic cancer cells is on record as “no effect was detected”. For the same molecule, the “antitumour activity in L1210 leukemia cultured cells” value in series [4] is “inactive”. The “effect on prostate cancer cells” value in the series on prostate cancer cells is given as “no effect was detected”. For the same molecule, the “apoptosis induction on HL-60 cells” value with HL-60 cells is “apoptotic inductor”.
